Source: ChEMBL document CHEMBL1138149, “Optimization of a privileged structure leading to potent and selective human melanocortin subtype-4 receptor ligands” (Bioorg Med Chem Lett, 2006)

Tests used:
Melanocortin receptor 4 [1] = target: T1, Melanocortin receptor 4 (Homo sapiens, UniProt P32245); test: Displacement of [125I]NDP-alpha-MSH from human MC4R expressed in CHO cells; type: cell-based
Melanocortin receptor 3 [2] = target: T2, Melanocortin receptor 3 (Homo sapiens, UniProt P41968); test: Activity against human MC3R by cAMP accumulation; type: functional
Melanocortin receptor 3 [3] = target: T2, Melanocortin receptor 3; test: Activity against human MC3R by percentage of cAMP accumulation at 10 uM; type: functional
Melanocortin receptor 5 [4] = target: T3, Melanocortin receptor 5 (Homo sapiens, UniProt P33032); test: Displacement of [125I]NDP-alpha-MSH from human MC5R expressed in CHO cells; type: cell-based
Melanocortin receptor 5 [5] = target: T3, Melanocortin receptor 5; test: Activity against human MC5R by percentage of cAMP accumulation at 10 uM; type: functional
Melanocortin receptor 4 [6] = target: T1, Melanocortin receptor 4; test: Activity against human MC4R by percentage of cAMP accumulation at 10 uM; type: functional
[7] = target: T4, Melanocyte-stimulating hormone receptor (Homo sapiens, UniProt Q01726); test: Activity against human MC1BR by cAMP accumulation; type: functional
Target sequence in this assay (Q01726 whole entry): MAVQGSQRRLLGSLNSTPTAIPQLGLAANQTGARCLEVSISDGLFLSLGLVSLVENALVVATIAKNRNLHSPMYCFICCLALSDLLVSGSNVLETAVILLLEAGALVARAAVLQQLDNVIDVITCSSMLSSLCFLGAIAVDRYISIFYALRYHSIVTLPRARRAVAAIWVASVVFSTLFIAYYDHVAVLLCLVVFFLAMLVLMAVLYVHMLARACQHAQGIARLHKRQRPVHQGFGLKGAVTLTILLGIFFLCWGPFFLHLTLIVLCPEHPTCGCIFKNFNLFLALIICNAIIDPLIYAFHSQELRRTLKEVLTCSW

[8] = target: T4, Melanocyte-stimulating hormone receptor; test: Activity against human MC1R by percentage of cAMP accumulation at 10 uM; type: functional
Target sequence in this assay (Q01726 whole entry, looked up): as the sequence (Q01726 whole entry) above

Melanocortin receptor 4 [9] = target: T1, Melanocortin receptor 4; test: Activity against human MC4R by cAMP accumulation; type: functional
[10] = target: T4, Melanocyte-stimulating hormone receptor; test: Displacement of [125I]NDP-alpha-MSH from human MC1BR expressed in CHO cells; type: cell-based
Target sequence in this assay (Q01726 whole entry): as above

Melanocortin receptor 3 [11] = target: T2, Melanocortin receptor 3; test: Displacement of [125I]NDP-alpha-MSH from human MC3R expressed in CHO cells; type: cell-based
Melanocortin receptor 5 [12] = target: T3, Melanocortin receptor 5; test: Activity against human MC5R by cAMP accumulation; type: functional

T1 sequence (P32245 whole entry): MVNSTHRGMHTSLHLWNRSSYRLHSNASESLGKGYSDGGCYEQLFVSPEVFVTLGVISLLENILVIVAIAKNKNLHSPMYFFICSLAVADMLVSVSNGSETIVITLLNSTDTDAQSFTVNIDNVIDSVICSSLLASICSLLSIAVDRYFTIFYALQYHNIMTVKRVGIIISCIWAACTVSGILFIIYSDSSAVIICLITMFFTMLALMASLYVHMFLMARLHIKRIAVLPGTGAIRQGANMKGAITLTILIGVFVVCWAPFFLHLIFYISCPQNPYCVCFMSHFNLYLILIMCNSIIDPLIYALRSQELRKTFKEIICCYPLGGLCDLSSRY
T3 sequence (P33032 whole entry): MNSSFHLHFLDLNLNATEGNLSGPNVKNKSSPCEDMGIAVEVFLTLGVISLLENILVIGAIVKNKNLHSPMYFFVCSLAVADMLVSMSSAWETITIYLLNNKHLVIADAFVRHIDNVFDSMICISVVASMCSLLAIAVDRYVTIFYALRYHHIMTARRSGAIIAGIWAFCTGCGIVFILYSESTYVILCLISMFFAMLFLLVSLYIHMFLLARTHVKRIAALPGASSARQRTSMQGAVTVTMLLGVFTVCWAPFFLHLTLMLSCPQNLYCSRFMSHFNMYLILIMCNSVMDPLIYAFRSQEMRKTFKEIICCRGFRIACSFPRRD
T2 sequence (P41968 whole entry): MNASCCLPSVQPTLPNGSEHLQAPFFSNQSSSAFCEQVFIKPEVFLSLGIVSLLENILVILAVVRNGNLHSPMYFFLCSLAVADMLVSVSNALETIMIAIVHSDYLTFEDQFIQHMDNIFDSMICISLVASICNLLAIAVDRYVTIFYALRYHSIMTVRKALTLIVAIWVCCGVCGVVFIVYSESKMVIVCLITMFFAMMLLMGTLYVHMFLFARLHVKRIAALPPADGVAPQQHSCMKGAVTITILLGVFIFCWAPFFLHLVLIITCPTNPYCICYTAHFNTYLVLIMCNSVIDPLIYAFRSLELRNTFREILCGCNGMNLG

Row | Structure (SMILES) | IC50 (Melanocortin receptor 4 [1]) [nM] | EC50 (Melanocortin receptor 3 [2]) [nM] | %max (Melanocortin receptor 3 [3]) [%] | IC50 (Melanocortin receptor 5 [4]) [nM] | %max (Melanocortin receptor 5 [5]) [%] | %max (Melanocortin receptor 4 [6]) [%] | EC50 [7] [nM] | %max [8] [%] | EC50 (Melanocortin receptor 4 [9]) [nM] | IC50 [10] [nM] | IC50 (Melanocortin receptor 3 [11]) [nM] | EC50 (Melanocortin receptor 5 [12]) [nM]
1 | CCOC(=O)N(CC1(C2CCCCC2)CCN(C(=O)[C@@H](Cc2ccc(Cl)cc2)NC(=O)[C@H]2Cc3ccccc3CN2)CC1)C(C)C | 8.1 | 550 | 37 | 630 | 51 | 95 | 970 | 26 | 14 | 1100 | 630 | 3600
2 | O=C(N[C@H](Cc1ccc(Cl)cc1)C(=O)N1CCC(CN2CCCS2(=O)=O)(C2CCCCC2)CC1)[C@H]1Cc2ccccc2CN1 | 0.91 | 540 | 19 | 170 | 41 | 67 | 680 | 41 | 5.3 | 1300 | 310 | 660
3 | CN1CCN(CC2(C3CCCCC3)CCN(C(=O)[C@@H](Cc3ccc(Cl)cc3)NC(=O)[C@H]3Cc4ccccc4CN3)CC2)C1=O | 4.3 | 1200 | 24 | 160 | 63 | 88 | 950 | 43 | 16 | 1800 | 660 | 460
4 | O=C(N[C@H](Cc1ccc(Cl)cc1)C(=O)N1CCC(CN2C(=O)OCC23CCC3)(C2CCCCC2)CC1)[C@H]1Cc2ccccc2CN1 | 7.9 | – | 6 | 210 | 32 | 65 | 1700 | 25 | 15 | 2100 | 400 | 1200
5 | CC1(C)CCN(CC2(C3CCCCC3)CCN(C(=O)[C@@H](Cc3ccc(Cl)cc3)NC(=O)[C@H]3Cc4ccccc4CN3)CC2)S1(=O)=O | 0.62 | 450 | 18 | 190 | 39 | 74 | 460 | 27 | 5.8 | 1200 | 760 | 850
6 | O=C(N[C@H](Cc1ccc(Cl)cc1)C(=O)N1CCC(CN2C(=O)OCC23CC3)(C2CCCCC2)CC1)[C@H]1Cc2ccccc2CN1 | 4.6 | 990 | 15 | 170 | 36 | 68 | 2600 | 48 | 6.1 | 2400 | 490 | 620
7 | O=C(N[C@H](Cc1ccc(Cl)cc1)C(=O)N1CCC(Cn2cncn2)(C2CCCCC2)CC1)[C@H]1Cc2ccccc2CN1 | – | – | 32 | – | 61 | – | – | 95 | – | – | – | –
8 | CC(C)N(CC1(C2CCCCC2)CCN(C(=O)[C@@H](Cc2ccc(Cl)cc2)NC(=O)[C@H]2Cc3ccccc3CN2)CC1)S(C)(=O)=O | 2.1 | 590 | 23 | 200 | 48 | 86 | 1500 | 39 | 5.6 | 1300 | 380 | 800

Results, then the molecule that gave them:

Row | IC50 (Melanocortin receptor 4 [1]) [nM] | EC50 (Melanocortin receptor 3 [2]) [nM] | %max (Melanocortin receptor 3 [3]) [%] | IC50 (Melanocortin receptor 5 [4]) [nM] | %max (Melanocortin receptor 5 [5]) [%] | %max (Melanocortin receptor 4 [6]) [%] | EC50 [7] [nM] | %max [8] [%] | EC50 (Melanocortin receptor 4 [9]) [nM] | IC50 [10] [nM] | IC50 (Melanocortin receptor 3 [11]) [nM] | EC50 (Melanocortin receptor 5 [12]) [nM] | Structure (SMILES)
9 | 4.8 | 880 | 23 | 150 | 48 | 82 | 980 | 39 | 16 | 1100 | 520 | 480 | O=C(N[C@H](Cc1ccc(Cl)cc1)C(=O)N1CCC(CN2CCNC2=O)(C2CCCCC2)CC1)[C@H]1Cc2ccccc2CN1
10 | 4.5 | 640 | 19 | 220 | 53 | 90 | 2100 | 72 | 8.6 | 2400 | 840 | 400 | C[C@H]1COC(=O)N1CC1(C2CCCCC2)CCN(C(=O)[C@@H](Cc2ccc(Cl)cc2)NC(=O)[C@H]2Cc3ccccc3CN2)CC1
11 | 4 | – | 11 | 180 | 48 | 76 | 1300 | 56 | 5.8 | 2000 | 460 | 280 | O=C(N[C@H](Cc1ccc(Cl)cc1)C(=O)N1CCC(CN2CCOC2=O)(C2CCCCC2)CC1)[C@H]1Cc2ccccc2CN1
12 | 0.8 | – | 6 | 80 | 38 | 82 | 550 | 35 | 2.4 | 1100 | 230 | 340 | CC1(C)COC(=O)N1CC1(C2CCCCC2)CCN(C(=O)[C@@H](Cc2ccc(Cl)cc2)NC(=O)[C@H]2Cc3ccccc3CN2)CC1
13 | 1.3 | 370 | 15 | 110 | 51 | 68 | 1300 | 40 | 1.3 | 1700 | 210 | 400 | C[C@@H]1COC(=O)N1CC1(C2CCCCC2)CCN(C(=O)[C@@H](Cc2ccc(Cl)cc2)NC(=O)[C@H]2Cc3ccccc3CN2)CC1
